Read-outs that look alike come from different tables or passages of the source.

The results in this text go back to US20130053381A1, “2,4-DIOXO-1,4-DIHYDRO-2H-QUINAZOLIN-3-YL-SULFONAMIDE DERIVATIVES” (NOVARTIS AG, priority 2010, published 2013).

For this assay, the system named is OF1 mice. The assay can be described thus: Maximal electroshock test (MES Test). The class given is in vivo. Conditions: for responders at 50 mg/kg / responders at 25 mg/kg: Mus musculus, read-out: %-Protection; for responders at 25 mg/kg: p.o. (footnote b). As for the experimental part:
Compounds of the invention were tested in OF1 mice using the maximal electroshock test (MES Test) described in detail by Schmutz et al., Naunyn-Schmiedeberg's Arch Pharmacol 1990, 342, 61-66. Briefly, generalized tonic-clonic convulsions of the hind extremities were induced by passing electrical current through temporal electrodes (50 Hz, 18 mA, 0.2s). […] 30 mg/kg carbamazepine was used as a positive control; mice were classified as protected by a compound If the duration of the seizure lasted only 3 second or less. Five mice were used for each treatment condition and the percentage of protected mice was used as readout (i.e. a compound could give 0%, 20%, 40%, 60%, 80% or 100% protection). Usually, compounds of the invention or their parents were given at a dose of 50 mg/kg, p.o., 1 hour prior to induction of convulsions (i.e. “pre-treatment time −1 h”).
ED50 values (ED: effective dose) were calculated using GraphPad Prism, v4.02. after shock administration, mouse blood was collected for determination of compounds' blood exposure.

The mark [1] stands for this setting: dose of up to 50 mg/kg, p.o., 1 hour prior to induction of convulsions.
Where [2] appears, read: po, 50 mg/kg, p.o., pre-treatment time −1 h.

As to `CCOC(=O)CCC(=O)N(n1c(=O)[nH]c2cc(C(F)(F)F)c(-c3ccnn3C(C)C)cc2c1=O)S(C)(=O)=O` [4-{[6-(2-Isopropyl-2H-pyrazol-3-yl)-2,4-dioxo-7-trifluoromethyl-1,4-dihydro-2H-quinazolin-3-yl]-methanesulfonyl-amino}-4-oxo-butyric acid ethyl ester], the responders at 50 mg/kg under setting [1] turned out to be 0%.

`CCn1nccc1-c1cc2c(=O)n(N(C(=O)COC(C)=O)S(C)(=O)=O)c(=O)[nH]c2cc1C(F)(F)F` [Acetic acid 2-{[6-(2-ethyl-2H-pyrazol-3-yl)-2,4-dioxo-7-trifluoromethyl-1,4-dihydro-2H-quinazolin-3-yl]-methanesulfonyl-amino}-2-oxo-ethyl ester]: under setting [1], the responders at 50 mg/kg amounted to 0%.

With `CC(=O)OCC(=O)N(n1c(=O)[nH]c2cc(C(F)(F)F)c(-c3ccnn3C(C)C)cc2c1=O)S(C)(=O)=O` [Acetic acid 2-{[6-(2-isopropyl-2H-pyrazol-3-yl)-2,4-dioxo-7-trifluoromethyl-1,4-dihydro-2H-quinazolin-3-yl]-methanesulfonyl-amino}-2-oxo-ethyl ester], under setting [1], the responders at 50 mg/kg was 0%. For `CCCCC(=O)N(n1c(=O)[nH]c2cc(C(F)(F)F)c(-c3ccnn3C)cc2c1=O)S(C)(=O)=O` [Example 1.01, N-[6-(2-Methyl-2H-pyrazol-3-yl)-2,4-dioxo-7-trifluoromethyl-1,4-dihydro-2H-guinazolin-3-yl]-N-pentanoyl-methanesulfonamide], the responders at 50 mg/kg under setting [2] turned out to be 40%. As for `CC(C)C(=O)N(n1c(=O)[nH]c2cc(C(F)(F)F)c(-c3ccnn3C)cc2c1=O)S(C)(=O)=O` [Example 1.02, N-Isobutyryl-N-[6-(2-methyl-2H-pyrazol-3-yl)-2,4-dioxo-7-trifluoromethyl-1,4-dihydro-2H-quinazolin-3-yl]-methanesulfonamide], the responders at 50 mg/kg under setting [2] amounted to 100%. Same read-out and setting: under `CCCC(=O)N(n1c(=O)[nH]c2cc(C(F)(F)F)c(-c3ccnn3C)cc2c1=O)S(C)(=O)=O` [Example 1.03, N-Butyryl-N-[6-(2-methyl-2H-pyrazol-3-yl)-2,4-dioxo-7-trifluoromethyl-1,4-dihydro-2H-quinazolin-3-yl]-methanesulfonamide] stands 100%. The same measure, in the same setting: under `CCCCCC(=O)N(n1c(=O)[nH]c2cc(C(F)(F)F)c(-c3ccnn3C)cc2c1=O)S(C)(=O)=O` [Example 1.04, N-Hexanoyl-N-[6-(2-methyl-2H-pyrazol-3-yl)-2,4-dioxo-7-trifluoromethyl-1,4-dihydro-2H-quinazolin-3-yl]-methanesulfonamide] stands 80%; under `COC(=O)N(n1c(=O)[nH]c2cc(C(F)(F)F)c(-c3ccnn3C)cc2c1=O)S(C)(=O)=O` [Example 1.05, Methanesulfonyl-[6-(2-methyl-2H-pyrazol-3-yl)-2,4-dioxo-7-trifluoromethyl-1,4-dihydro-2H-quinazolin-3-yl]-carbamic acid methyl ester], 80%. Still for that read-out and setting: under `CC(C)COC(=O)N(n1c(=O)[nH]c2cc(C(F)(F)F)c(-c3ccnn3C)cc2c1=O)S(C)(=O)=O` [Example 1.06, Methanesulfonyl-[6-(2-methyl-2H-pyrazol-3-yl)-2,4-dioxo-7-trifluoromethyl-1,4-dihydro-2H-quinazolin-3-yl]-carbamic acid isobutyl ester] stands 60%. Consider `COCCOC(=O)N(n1c(=O)[nH]c2cc(C(F)(F)F)c(-c3ccnn3C)cc2c1=O)S(C)(=O)=O` [Example 1.07, Methanesulfonyl-[6-(2-methyl-2H-pyrazol-3-yl)-2,4-dioxo-7-trifluoromethyl-1,4-dihydro-2H-quinazolin-3-yl]-carbamic acid 2-methoxy-ethyl ester], for which the responders at 50 mg/kg under setting [2] was found to be 80%. On the same count and under the same terms, the value for `CCc1cc2[nH]c(=O)n(N(C(C)=O)S(C)(=O)=O)c(=O)c2cc1-c1ccnn1C` [Example 2.01, N-Acetyl-N-[7-ethyl-6-(2-methyl-2H-pyrazol-3-yl)-2,4-dioxo-1,4-dihydro-2H-quinazolin-3-yl]-methanesulfonamide] was 100%. For the compound `CCCC(=O)N(n1c(=O)[nH]c2cc(CC)c(-c3ccnn3C)cc2c1=O)S(C)(=O)=O` [Example 2.02, N-Butyryl-N-[7-ethyl-6-(2-methyl-2H-pyrazol-3-yl)-2,4-dioxo-1,4-dihydro-2H-quinazolin-3-yl]-methanesulfonamide], under “po, pre-treatment time −1 h”, the responders at 25 mg/kg was found to be 100%. On the same count and under the same terms, the value for `CCCCCC(=O)N(n1c(=O)[nH]c2cc(CC)c(-c3ccnn3C)cc2c1=O)S(C)(=O)=O` [Example 2.03, N-[7-Ethyl-6-(2-methyl-2H-pyrazol-3-yl)-2,4-dioxo-1,4-dihydro-2H-quinazolin-3-yl]-N-hexanoyl-methanesulfonamide] was 100%; that for `CCc1cc2[nH]c(=O)n(N(C(=O)OCC(C)C)S(C)(=O)=O)c(=O)c2cc1-c1ccnn1C` [Example 2.04, Methanesulfonyl-[7-ethyl-6-(2-methyl-2H-pyrazol-3-yl)-2,4-dioxo-1,4-dihydro-2H-quinazolin-3-yl]-carbamic acid isobutyl ester] was 80%; that for `CCc1cc2[nH]c(=O)n(N(C(=O)OCCOC)S(C)(=O)=O)c(=O)c2cc1-c1ccnn1C` [Example 2.05, Methanesulfonyl-[7-ethyl-6-(2-methyl-2H-pyrazol-3-yl)-2,4-dioxo-1,4-dihydro-2H-quinazolin-3-yl]-carbamic acid 2-methoxy-ethyl ester] was 80%. Take `CCCOC(=O)N(n1c(=O)[nH]c2cc(CC)c(-c3ccnn3C)cc2c1=O)S(C)(=O)=O` [Example 2.06, Methanesulfonyl-[7-ethyl-6-(2-methyl-2H-pyrazol-3-yl)-2,4-dioxo-1,4-dihydro-2H-quinazolin-3-yl]-carbamic acid propyl ester]: the responders at 50 mg/kg under setting [2] was determined as 60%. As to `CCc1cc2[nH]c(=O)n(N(C(=O)OC)S(C)(=O)=O)c(=O)c2cc1-c1ccnn1C` [Example 2.07, Methanesulfonyl-[7-ethyl-6-(2-methyl-2H-pyrazol-3-yl)-2,4-dioxo-1,4-dihydro-2H-quinazolin-3-yl]-carbamic acid methyl ester], under setting [2], the responders at 50 mg/kg was determined as 100%. On the same count and under the same terms, under `CCOC(=O)N(n1c(=O)[nH]c2cc(CC)c(-c3ccnn3C)cc2c1=O)S(C)(=O)=O` [Example 2.08, Methanesulfonyl-[7-ethyl-6-(2-methyl-2H-pyrazol-3-yl)-2,4-dioxo-1,4-dihydro-2H-quinazolin-3-yl]-carbamic acid ethyl ester] stands 80%.

For `CCCCOC(=O)N(n1c(=O)[nH]c2cc(CC)c(-c3ccnn3C)cc2c1=O)S(C)(=O)=O` [Example 2.09, Methanesulfonyl-[7-ethyl-6-(2-methyl-2H-pyrazol-3-yl)-2,4-dioxo-1,4-dihydro-2H-quinazolin-3-yl]-carbamic acid butyl ester], the responders at 50 mg/kg under setting [2] came to 40%. On the same count and under the same terms, the value for `CCC(=O)N(n1c(=O)[nH]c2cc(CC)c(-c3ccnn3C)cc2c1=O)S(C)(=O)=O` [Example 2.10, N-[7-Ethyl-6-(2-methyl-2H-pyrazol-3-yl)-2,4-dioxo-1,4-dihydro-2H-quinazolin-3-yl]-N-propionyl-methanesulfonamide] was 100%. Same read-out and setting: under `CCCCC(=O)N(n1c(=O)[nH]c2cc(CC)c(-c3ccnn3C)cc2c1=O)S(C)(=O)=O` [Example 2.11, N-[7-Ethyl-6-(2-methyl-2H-pyrazol-3-yl)-2,4-dioxo-1,4-dihydro-2H-quinazolin-3-yl]-N-pentanoyl-methanesulfonamide] stands 100%.

`CCc1cc2[nH]c(=O)n(N(C(=O)OC(C)C)S(C)(=O)=O)c(=O)c2cc1-c1ccnn1C` [Example 2.12, Methanesulfonyl-[7-ethyl-6-(2-methyl-2H-pyrazol-3-yl)-2,4-dioxo-1,4-dihydro-2H-quinazolin-3-yl]-carbamic acid isopropyl ester]: the responders at 50 mg/kg under setting [2] was 60%. Regarding `CCCCCOC(=O)N(n1c(=O)[nH]c2cc(CC)c(-c3ccnn3C)cc2c1=O)S(C)(=O)=O` [Example 2.13, Methanesulfonyl-[7-ethyl-6-(2-methyl-2H-pyrazol-3-yl)-2,4-dioxo-1,4-dihydro-2H-quinazolin-3-yl]-carbamic acid pentyl ester], the responders at 50 mg/kg under setting [2] stood at 20%. Consider `CCc1cc2c(cc1-c1ccnn1C)c(=O)n(N(C(C)=O)S(C)(=O)=O)c(=O)n2C(C)=O` [Example 2.14, N-Acetyl-N-[1-acetyl-7-ethyl-6-(2-methyl-2H-pyrazol-3-yl)-2,4-dioxo-1,4-dihydro-2H-quinazolin-3-yl]-methanesulfonamide], for which the responders at 50 mg/kg under setting [2] was 100%. `CC(=O)N(n1c(=O)[nH]c2cc(C(C)C)c(-c3ccnn3C)cc2c1=O)S(C)(=O)=O` [Example 3.01, N-Acetyl-N-[7-isopropyl-6-(2-methyl-2H-pyrazol-3-yl)-2,4-dioxo-1,4-dihydro-2H-quinazolin-3-yl]-methanesulfonamide]: the responders at 50 mg/kg (po, 50 mg/kg, p.o., pre-treatment time −0.5 h (footnote d)) worked out at 100%; the responders at 50 mg/kg (po, Table 5, 50 mg/kg, p.o., pre-treatment time −0.25 h) stood at 40%; the responders at 50 mg/kg (po, Table 5, 50 mg/kg, p.o., pre-treatment time −1 h) was 100%. Further, the “%-Protection” value (Table 5, 50 mg/kg, p.o., pre-treatment time −0.5 h) came to 100%.
